For 17 compounds, Ki and Activity results are on record in ChEMBL document CHEMBL1132392, “Novel derivatives of 3-(dipropylamino)chroman. Interactions with 5-HT1A and D2A receptors” (Bioorg Med Chem Lett, 1999).

For orientation: pKi means the Ki on a negative log10 scale, so that one unit is a factor of ten. A higher pKi goes with a low Ki.

Molecules are shown by their SMILES. pKi: −log10 of the molar value. Activity calls are given as the source filed them. No cut-off for these calls is given here.

The target in assay [1] is T1, 5-hydroxytryptamine receptor 1A (Rattus norvegicus, UniProt P19327).
T1 sequence (P19327 whole entry): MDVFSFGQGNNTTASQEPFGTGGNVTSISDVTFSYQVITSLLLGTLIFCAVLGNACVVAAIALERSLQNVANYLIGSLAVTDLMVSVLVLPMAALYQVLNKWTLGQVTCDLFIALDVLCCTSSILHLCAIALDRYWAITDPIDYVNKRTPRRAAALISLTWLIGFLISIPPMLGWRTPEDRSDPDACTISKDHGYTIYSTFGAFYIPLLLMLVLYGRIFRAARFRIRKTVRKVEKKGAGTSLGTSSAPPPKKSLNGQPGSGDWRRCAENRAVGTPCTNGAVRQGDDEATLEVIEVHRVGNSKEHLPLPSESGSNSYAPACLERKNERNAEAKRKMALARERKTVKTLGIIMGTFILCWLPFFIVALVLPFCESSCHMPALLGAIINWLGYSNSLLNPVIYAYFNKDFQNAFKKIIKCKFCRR
The experiment in a line: In vitro ability to inhibit [3H]-8-OH-DPAT binding to 5-hydroxytryptamine 1A receptor in rat cortical membranes. The class given is cell membranes.

For assay [2], the target named is T2, D(2) dopamine receptor (Homo sapiens, UniProt P14416). Briefly: In vitro ability to inhibit [3H]raclopride binding to cloned human D2A receptors expressed in mouse fibroblast (LtK-) cells. The class given is cell-based.
Assay [3] addresses T2, D(2) dopamine receptor. Briefly: Agonist activity against human D2A receptor; Active. The class given is functional.

T2 sequence (P14416 whole entry): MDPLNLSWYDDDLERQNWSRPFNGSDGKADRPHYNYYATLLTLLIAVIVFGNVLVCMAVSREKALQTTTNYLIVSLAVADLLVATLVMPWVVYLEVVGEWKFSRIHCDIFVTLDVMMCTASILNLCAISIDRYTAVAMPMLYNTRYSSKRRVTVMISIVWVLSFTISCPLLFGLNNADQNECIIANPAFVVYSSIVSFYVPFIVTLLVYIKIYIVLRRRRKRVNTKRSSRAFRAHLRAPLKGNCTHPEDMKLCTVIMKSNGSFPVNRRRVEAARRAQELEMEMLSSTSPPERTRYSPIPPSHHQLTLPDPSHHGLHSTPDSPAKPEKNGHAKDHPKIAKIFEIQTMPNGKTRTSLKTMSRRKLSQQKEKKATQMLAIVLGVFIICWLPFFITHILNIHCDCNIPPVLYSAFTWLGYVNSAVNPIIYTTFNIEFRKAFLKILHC

Turning to `CCCN(CCC)C1COc2c(cccc2-c2ccsc2)C1` (stereo not given), the pKi in assay [1] was 8.96; on D(2) dopamine receptor [2], 6.40. With `CCCN(CCC)C1COc2c(SC)ccc(OC)c2C1` (stereo not given), the result on D(2) dopamine receptor [3] was Active. Take `CCCN(CCC)C1COc2c(O)cccc2C1` (stereo not given): the negative logarithm of the Ki (pKi) in assay [1] was less than 5.52; on D(2) dopamine receptor [2], 6.89. Regarding `CCCN(CCC)C1COc2c(cccc2-c2ccoc2)C1` (stereo not given), the pKi in assay [1] is 8.24; on D(2) dopamine receptor [2], 7.32. With `CCCN(CCC)C1COc2c(cccc2C(=O)c2ccoc2)C1` (stereo not given), the pKi was 7.79 in assay [1] and 5.87 on D(2) dopamine receptor [2]. As to `CCCN(CCC)C1COc2c(cccc2-c2ccccc2)C1` (stereo not given), the negative-log Ki (pKi) in assay [1] is 8.96. With `CCCN(CCC)C1COc2c(cccc2C(=O)c2ccc(OC)cc2)C1` (stereo not given), the negative-log Ki (pKi) is 7.98 in assay [1] and less than 6.00 on D(2) dopamine receptor [2].

Turning to `CCCN(CCC)C1COc2c(cccc2C(=O)c2ccc(C(F)(F)F)cc2)C1` (stereo not given), the negative logarithm of the Ki (pKi) in assay [1] was 7.33; on D(2) dopamine receptor [2], less than 6.00. In the case of `CCCN(CCC)C1COc2c(cccc2C(=O)c2ccccc2)C1` (stereo not given), the pKi was 8.40 in assay [1] and less than 6.00 on D(2) dopamine receptor [2].

As to `CCCN(CCC)C1COc2c(cccc2C(=O)c2ccc(C(C)=O)cc2)C1` (stereo not given), the negative-log Ki (pKi) was 7.96 in assay [1] and less than 6.00 on D(2) dopamine receptor [2].

Take `CCCN(CCC)C1COc2c(Br)ccc(OC)c2C1` (stereo not given): the result at D(2) dopamine receptor [3] was Active. Take `CCCN(CCC)C1COc2c(cccc2C(=O)c2ccsc2)C1` (stereo not given): the values for the pKi (in assay [1]; on D(2) dopamine receptor [2]) were 8.14 and less than 6.00, respectively. `CCCN(CCC)C1COc2c(cccc2-c2ccc(OC)cc2)C1` (stereo not given) gave a pKi in assay [1] of 8.89. For the compound `CCCN(CCC)C1COc2c(cccc2C(=O)c2ccccc2OC)C1` (stereo not given), the negative logarithm of the Ki (pKi) is 7.22 in assay [1] and less than 6.00 on D(2) dopamine receptor [2]. As to `CCCN(CCC)C1COc2cccc(O)c2C1` (stereo not given), the figures for the pKi (in assay [1]; on D(2) dopamine receptor [2]) were 7.08 and less than 5.52, respectively. For `CCCN(CCC)C1COc2c(cccc2-c2ccccc2OC)C1` (stereo not given), the figures for the pKi (in assay [1]; at D(2) dopamine receptor [2]) were 8.96 and less than 6.00, respectively. Regarding `CCCN(CCC)C1COc2c(cccc2-c2ccc(C(F)(F)F)cc2)C1` (stereo not given), the pKi was 7.20 in assay [1] and 6.12 on D(2) dopamine receptor [2].
